# From patent US12533444B2, “Mitigation of peri-implantitis by design and stability of bifunctional peptides with antimicrobial properties” (priority 2019, dated 2026)
# How the values were obtained:
# oral pathogens = details: against oral pathogens; cited from earlier work
# [1] = Peptide film coverage on implant discs after S. mutans challenge; details: S. mutans challenge for 24 hours, FITC-labeled peptide
# From the text: (§1) A custom MatLab script was developed to determine the percent surface coverage of fluorescently labeled bifunctional peptides on the implant disc surface. The color fluorescent images were read into MatLab using the imread function. The images were converted to black and white and the total number of black and white pixels quantitated. The number of white pixels corresponding to the fluorescently labeled peptides was divided by the total number of pixels to determine the percent surface coverage.
# Streptococcus mutans bacteria (ATCC 700610) were cultured according to an ATCC protocol. Frozen stocks were streak plated on agar and incubated for 24 hours at 37° C. in atmosphere with 5% CO2. […]
# Following the functionalization of titanium discs, they were transferred to a sterile well in a 24-well plate and 400 μL of S. mutans bacteria at a concentration of 10^3 CFU/mL was added to the wells containing the discs and incubated for 24 hours at 37° C. in atmosphere with 5% CO2. […] Experiments were repeated in triplicate and images were recorded at 10× magnification.
# The binding and antimicrobial domain activities were evaluated by challenging the bifunctional peptide film applied to titanium implant discs with S. mutans bacteria for 24 hours. […]
# S. mutans = assay: Propidium iodide staining of dead S. mutans bacteria on functionalized implant discs; format: cell-based, Streptococcus mutans; details: discs functionalized 2 minutes at 37° C., S. mutans challenge 24 hours
# Experimental: Streptococcus mutans bacteria (ATCC 700610) were cultured according to an ATCC protocol. Frozen stocks were streak plated on agar and incubated for 24 hours at 37° C. in atmosphere with 5% CO2. A single bacterial colony was used to inoculate 5 mL of Brain Heart Infusion (BHI) broth in a sterile 50 mL conical tube and incubated overnight in the same conditions. Following incubation, 1 mL of culture was added to 9 mL of fresh media and grown to mid-log phase with a final concentration of 10^5 CFU/mL.
# Following the functionalization of titanium discs, they were transferred to a sterile well in a 24-well plate and 400 μL of S. mutans bacteria at a concentration of 10^3 CFU/mL was added to the wells containing the discs and incubated for 24 hours at 37° C. in atmosphere with 5% CO2. Following incubation, discs were imaged with a fluorescent microscope to visualize FTIC-labeled bifunctional peptides on the disc surface after bacterial challenge. The dead bacteria were stained with propidium iodide and imaged using a fluorescent microscope. Experiments were repeated in triplicate and images were recorded at 10× magnification.
# The antimicrobial functional efficacy of TiBP-AMPA compared to TiBP-GL13K supported the design prediction. […] Representative fluorescent images and quantification of three replicate experiments are depicted in FIGS. 8A and 8B, respectively.
# [2] = Serum competition binding assay with BSA on titanium implant discs; details: presence of 0.01% BSA, 2 minutes at 37° C.
# From the text: as §1
# Prior to functionalization of sterile titanium implant discs, a solution of BSA and the bifunctional peptide was made in a sterile centrifuge tube. In a sterile 24 well plate, 100 μL of the BSA/bifunctional peptide solution was pipetted onto a titanium implant disc and incubated at 37° C. for 2 minutes. […]
# The bifunctional peptide film could be applied to a new dental implant prior to implantation and subsequently during recall appointments for treatment to previously placed implants. […] Thus, the ability of the peptide film to functionalize the implant surface in the presence of serum proteins was determined by pre-mixing the peptide with varying concentrations of bovine serum albumin (BSA) followed by incubating the mixture on the titanium disc for 2 minutes at 37° C. […]
# [3] = Peptide binding to titanium implant discs (percent surface coverage by fluorescence imaging); details: FITC-labeled peptide, up to 6× theoretical footprint concentration, two minutes at 37° C., washed
# Experimental: Titanium implant disc functionalization with bifunctional peptides was accomplished by incubating 100 μL of a specified fold concentration of the theoretical “footprint” concentration onto clean, sterile discs for different time periods at 37° C. for 2 minutes. Following incubation, the discs were transferred to a sterile well in a 24-well plate containing 500 μL of DI H2O and washed multiple times to remove unbound peptide. The discs were transferred to a clean glass microscope slide for imaging using a fluorescent microscope. All experiments were repeated a minimum of three times and images were recorded at 10× magnification.
# as §1, with “The number of white pixels corresponding to the fluorescently labeled peptides was divided by the total number of pixels to determine the percent surface coverage.” left out
# The theoretical footprint concentration of each bifunctional peptide with a multiple of the binding concentration up to 6× was determined to result in near 100% surface coverage after incubation with a titanium implant disc for only two minutes at 37° C. […] The fluorescent images were then analyzed using a MATLAB script to determine the percentage of the implant disc covered by the bifunctional peptides. […]
sequence,measurement,setting,value
"GKIIKLKASLKLL [GL13K, cationic amphipathic antimicrobial peptide domain]",MIC,oral pathogens,low
"KWKLWKKIEKWGQGIGAVLKWLTTW [AMPA, cationic antimicrobial peptide domain]",MIC,oral pathogens,low
"RPRENRGRERGLGSGGGGKIIKLKASLKLL [TiBP-GL13K, comparative bifunctional peptide: TiBP, GSGGG spacer, GL13K antimicrobial domain]",surface coverage after bacterial challenge,[1],60%
same,dead bacteria coverage (PI staining),S. mutans,10%
same,surface coverage in competition with BSA,[2],73%
same,surface coverage (initial binding),[3],96%
RPRENRGRERGLGSGGGKWKLWKKIEKWGQGIGAVLKWLTTW [TiBP-AMPA],surface coverage after bacterial challenge,[1],84%
same,dead bacteria coverage (PI staining),S. mutans,46%
same,surface coverage in competition with BSA,[2],80%
same,surface coverage (initial binding),[3],99%
